Here are results for three compounds from patent US5550249A, “Water soluble derivatives of biotin and related therapeutical compositions” (Lifegroup, S.p.A., priority 1991, dated 1996).

Where two headings read alike, the source gives them in different places.

Data set [1] can be described thus: Partition in water/octanol (14C-biotin, scintillation counting). The format is physicochemical. The protocol:
^14 C-biotin (53000 dpm) was used admixed with cool biotin (0.25 mmol) in 5 ml of twice distilled water, in the presence and in the absence of ethanolamine (3 μl), then adding 5 ml of octanol and stirring (1 minute by means of a stirrer VORTEX). After separation of the phases the radioactivity was measured by scintillation (Beckman counter) in 1 ml of sample. The amount of ^14 C-biotin transferred into the octanolic phase was 14443 dpm in the absence of ethanolamine and 82 dpm in the presence of ethanolamine.
This confirms the increase in solubility in the aqueous phase, which is a consequence of the salification.

For data set [2] the following is noted: cited from earlier work.
Another data set has as its system vitamin H deficiency. The note with it: cited from earlier work.
In data set [3] the test system is carboxylase enzymes deficiency. The conditions noted are these: cited from earlier work.
For data set [4], the system named is seborrheal dermatitis of the newborn. The conditions noted are these: cited from earlier work.
The test system of another data set is diabetes. The note with it: cited from earlier work.
Data set [5] deals with peripheral neuropathies having diabetic origin. The note with it: human beings; cited from earlier work.
The subject of another data set is glucokinase. The note with it: recent studies; cited from earlier work.
In a further data set the test system is insulin. The note with it: recent studies; cited from earlier work.
Another data set in a line: Water solubility. The format is physicochemical. The conditions noted are these: salts of biotin with an aminoalcohol.
Data set [6] in a line: Solubility in cold ethanol. The format is physicochemical.
Setting [7] is: water/octanol, average of 3 tests.

With `O=C(O)CCCC[C@@H]1SC[C@@H]2NC(=O)N[C@@H]21` [Biotin, biotin], in data set [1] (pH 4, average of 3 tests), the “H2O (dpm)” value is listed as 40769 dpm, the H2O/octanol is reported as 2.9 and the “octanol (dpm)” value worked out at 13991 dpm. In data set [1] (setting [7]), the “H2O (dpm)” value was 40940 dpm, the H2O/octanol is given as 2.8 and the “octanol (dpm)” value was 14443 dpm. Moreover, the water solubility in [2] (biotin as such) is 22 mg/100 ml. Moreover, the “water solubility (in words)” value in data set [2] (prior art) is given as “poor water solubility”. Moreover, in the data set on vitamin H deficiency (Sidenstricker and co-workers, 1942), the egg-white injury entry is reported as “can be defeated”. Further, the “secondary effects of vitamin deficiency” value in the data set with vitamin H deficiency (following administration of biotin for a certain time) is reported as “disappeared”. The “effect in diseases coming from a deficiency in multiple carboxylase enzymes” value in [3] (multiple carboxylase enzymes) is listed as “effective”. Moreover, the “effect in diseases caused by single carboxylase enzymes insufficiency” value in [3] (single carboxylase enzymes (propionyl-CoA, pyruvate, β-methyl-crotonyl carboxylase)) is recorded as “uneffective”. Besides, in data set [4], the “effect in seborrheal dermatitis in the newborn” value is “particularly effective”. The blood glucose level entry with diabetes (insulin-dependent diabetics) is reported as “lowers the blood glucose level”. Further, in the data set on diabetes (insulin-independent diabetes), the glucose tolerance entry is “increase glucose tolerance”, the post-prandial glucose level entry is “reduce the post-prandial glucose level” and the resistance to insulin entry is “lower resistance to insulin”. Besides, the “treatment and prevention of diabetic peripheral neuropathies” value in data set [5] is “advantageously utilized”. The activation of glucokinase entry in the data set with glucokinase is given as “able to activate”. Moreover, the activation of insulin result with insulin is recorded as “able to activate”.
Take `O=C(O)CCCC[C@@H]1SC[C@@H]2NC(=O)N[C@@H]21` [Ethanolamine biotinate, ethanolamine biotinate]: in data set [1] (pH 4, average of 3 tests), the “H2O (dpm)” value was 32148 dpm, the H2O/octanol came to 2.6 and the “octanol (dpm)” value is given as 12300 dpm. For the same compound, in data set [1] (setting [7]), the “H2O (dpm)” value is 36664 dpm, the H2O/octanol stood at 447.1 and the “octanol (dpm)” value turned out to be 82 dpm. Besides, in “Water solubility”, the “water solubility (in words)” value was “completely water soluble”. Further, the “solubility in cold ethanol (in words)” value in data set [6] is given as “rather soluble in cold ethanol”.
With `O=C(O)CCCC[C@@H]1SC[C@@H]2NC(=O)N[C@@H]21` [^14 C-biotin], the “change of amount of 14C-biotin transferred into the octanolic phase” value in data set [1] (aqueous phase brought to pH 4, in the absence of ethanolamine) is reported as “always remains the same”. The “increase of amount of 14C-biotin transferred into the octanolic phase” value in data set [1] (aqueous phase brought to pH 4, in the presence of ethanolamine) turned out to be 170 times. The “amount of 14C-biotin transferred into the octanolic phase” value is 14443 dpm in [1] (in the absence of ethanolamine) and 82 dpm in [1] (in the presence of ethanolamine (3 μl)).
